In PubChem BioAssay AID330 (DTP/NCI, 2004):
“And” between values parts separate entries of the source, which are not always exact repeats. Identical values can stand only once. Inconclusive results and toxic doses are left out.

System: P388 leukemia ip, CD2F1 mice, survival T/C
Test: NCI In Vivo Anticancer Drug Screen. Data for tumor model P388 Leukemia (intraperitoneal) in CD2F1 (CDF1) mice
Conditions: endpoint: median survival time, higher = longer survival
How it was run: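 Mice carrying the transplanted tumor received test compound or vehicle. Survival was recorded in each group, and the value is the treated-group measurement divided by that of the vehicle-treated control group.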

[1] = dose: 25.0 mg/kg/injection, schedule: Q01DX009 (ip), vehicle: saline with Tween-80
[2] = dose: 50.0 mg/kg/injection, schedule: Q01DX009 (ip), vehicle: saline with Tween-80
[3] = dose: 100.0 mg/kg/injection, schedule: Q04DX003 (ip), vehicle: saline with Tween-80
[4] = dose: 200.0 mg/kg/injection, schedule: Q04DX003 (ip), vehicle: saline with Tween-80
[5] = dose: 100.0 mg/kg/injection, schedule: Q01DX001 (ip), vehicle: saline with Tween-80
[6] = dose: 200.0 mg/kg/injection, schedule: Q01DX001 (ip), vehicle: saline with Tween-80

**Q.** What does the source list for `Cc1cccc2c1C(=O)N(CC[P+](c1ccccc1)(c1ccccc1)c1ccccc1)C2=O`?
**A.** T/C (dose: 0.78 mg/kg/injection, schedule: Q01DX009 (ip), vehicle: water): 111 % of control; T/C (dose: 1.33 mg/kg/injection, schedule: Q01DX009 (ip), vehicle: water): 115 % of control; T/C (dose: 2.0 mg/kg/injection, schedule: Q01DX009 (ip), vehicle: water): 119 % of control; T/C (dose: 3.0 mg/kg/injection, schedule: Q01DX009 (ip), vehicle: water): 121 % of control

**Q.** How did the T/C [1] turn out when `CCOC(=O)C(Cc1ccc(N(CCCl)CCCl)cc1)NC(=O)C(Cc1ccccc1)NC=O` (stereo not given) was run?
**A.** The T/C was 172 % of control.

**Q.** And the T/C [2]?
**A.** The T/C was 86 % of control.

**Q.** And the T/C [3]?
**A.** The T/C was 166 % of control.

**Q.** What about the T/C [4] of the same compound?
**A.** The T/C was 220 % of control.

**Q.** `COc1ccc2cc(C(=O)c3ccccc3)c(=O)oc2c1` was tested. Which T/C (dose: 60.0 mg/kg/injection, schedule: Q01DX005 (ip), vehicle: saline with Tween-80) did it give?
**A.** The T/C was 93 % of control.

**Q.** What about the T/C (dose: 120.0 mg/kg/injection, schedule: Q01DX005 (ip), vehicle: saline with Tween-80) of the same compound?
**A.** The T/C was 96 % of control.

**Q.** And the T/C (dose: 240.0 mg/kg/injection, schedule: Q01DX005 (ip), vehicle: saline with Tween-80)?
**A.** Its T/C is 96 % of control.

**Q.** Which T/C [3] does the source give for `CCCSCC` here?
**A.** Its T/C is 104 % of control.

**Q.** What about the T/C [4] of the same compound?
**A.** The T/C was 100 % of control.

**Q.** What about the T/C (dose: 400.0 mg/kg/injection, schedule: Q04DX003 (ip), vehicle: saline with Tween-80) of the same compound?
**A.** The T/C was 100 % of control.

**Q.** What does the source list for `CCCOc1cc2c(cc1C(C)c1ccc(OC)cc1)OCO2` (stereo not given)?
**A.** T/C (dose: 25.0 mg/kg/injection, schedule: Q01DX005 (ip), vehicle: distilled water + alcohol): 106 % of control; T/C (dose: 400.0 mg/kg/injection, schedule: Q01DX005 (ip), vehicle: distilled water + alcohol): 112 % of control and 114 % of control

**Q.** Which results are given for `O=CC(CO)C(C=O)n1ncc2ccccc21` (stereo not given)?
**A.** T/C (dose: 4.0 mg/kg/injection, schedule: Q01DX009 (ip), vehicle: saline with Tween-80): 120 % of control; T/C (dose: 8.0 mg/kg/injection, schedule: Q01DX001 (ip), vehicle: suspension in saline): 108 % of control; T/C (dose: 16.0 mg/kg/injection, schedule: Q01DX001 (ip), vehicle: saline): 107 % of control; T/C (dose: 16.0 mg/kg/injection, schedule: Q01DX001 (ip), vehicle: suspension in saline): 98 % of control; T/C (dose: 16.0 mg/kg/injection, schedule: Q01DX009 (ip), vehicle: saline with Tween-80): 119 % of control; T/C (dose: 32.0 mg/kg/injection, schedule: Q01DX001 (ip), vehicle: saline): 107 % of control and 116 % of control; T/C (dose: 32.0 mg/kg/injection, schedule: Q01DX001 (ip), vehicle: suspension in saline): 94 % of control; T/C (dose: 64.0 mg/kg/injection, schedule: Q01DX001 (ip), vehicle: saline): 172 % of control; T/C (dose: 64.0 mg/kg/injection, schedule: Q01DX001 (ip), vehicle: suspension in saline): 108 % of control

**Q.** Which results are given for `N#CC(C#N)=NO` (tested in a mixture with another compound)?
**A.** T/C (dose: 6.25 mg/kg/injection, schedule: Q01DX009 (ip), vehicle: saline with Tween-80): 100 % of control; T/C (dose: 12.5 mg/kg/injection, schedule: Q01DX009 (ip), vehicle: saline with Tween-80): 98 % of control; T/C [1]: 100 % of control; T/C (dose: 100.0 mg/kg/injection, schedule: Q01DX009 (ip), vehicle: saline): 86 % of control

**Q.** Which results are given for `Cn1c2c([N+](=O)[O-])cccc2c(=O)c2c(O)cc3c(c21)C=CC(C)(C)O3`?
**A.** T/C [5]: 108 % of control; T/C [6]: 110 % of control

**Q.** With `COC(=O)/C(=C\C=C\c1ccccc1)NC(=O)c1ccccc1` as the compound, how does the T/C [5] read?
**A.** The T/C was 100 % of control.

**Q.** What about the T/C [6] of the same compound?
**A.** The T/C was 96 % of control.

**Q.** And the T/C (dose: 400.0 mg/kg/injection, schedule: Q01DX001 (ip), vehicle: saline with Tween-80)?
**A.** The T/C was 89 % of control.

**Q.** Which T/C [2] does the source give for `Cc1cc2c(cc1C)-c1c(oc3cc(C)c(C)cc13)-c1ccccc1C(=O)O2` here?
**A.** The T/C was 94 % of control.

**Q.** What about the T/C (dose: 100.0 mg/kg/injection, schedule: Q01DX009 (ip), vehicle: saline with Tween-80) of the same compound?
**A.** The T/C was 97 % of control.

**Q.** And the T/C (dose: 200.0 mg/kg/injection, schedule: Q01DX009 (ip), vehicle: saline with Tween-80)?
**A.** Its T/C is 97 % of control.

**Q.** With `Cc1ccc(S(=O)(=O)SSN2CCOCC2)cc1` as the compound, how does the T/C (dose: 50.0 mg/kg/injection, schedule: Q01DX005 (ip), vehicle: saline with Tween-80) read?
**A.** Its T/C is 103 % of control.

**Q.** What about the T/C (dose: 100.0 mg/kg/injection, schedule: Q01DX005 (ip), vehicle: saline with Tween-80) of the same compound?
**A.** Its T/C is 100 % of control.

**Q.** What about the T/C (dose: 200.0 mg/kg/injection, schedule: Q01DX005 (ip), vehicle: saline with Tween-80) of the same compound?
**A.** The T/C was 100 % of control.

**Q.** Which T/C (dose: 50.0 mg/kg/injection, schedule: Q01DX005 (ip), vehicle: saline) does the source give for `C=CCC(C(C)=O)C(=O)OC(C)(C)C` (stereo not given) here?
**A.** The T/C was 101 % of control.

**Q.** And the T/C (dose: 100.0 mg/kg/injection, schedule: Q01DX005 (ip), vehicle: saline)?
**A.** Its T/C is 104 % of control.

**Q.** And the T/C (dose: 200.0 mg/kg/injection, schedule: Q01DX005 (ip), vehicle: saline)?
**A.** The T/C was 111 % of control.

**Q.** With `O=[N+]([O-])c1cccc(N2CN(c3ccccc3)NC(c3ccccc3)=N2)c1` as the compound, how does the T/C (dose: 50.0 mg/kg/injection, schedule: Q04DX003 (ip), vehicle: saline with Tween-80) read?
**A.** Its T/C is 90 % of control.

**Q.** And the T/C [4]?
**A.** Its T/C is 107 % of control.
